Series [1] concerns SW480 (colon cancer) cells. In words: MTT antiproliferative assay, SW480. It is filed as cell-based, human. The note with it: exposure time 96 h, means ± standard deviations. As to the method: (§1) CH1/PA-1 (ovarian teratocarcinoma) cells were a generous gift from Lloyd R. Kelland (CRC Centre for Cancer Therapeutics, Institute of Cancer Research, Sutton, UK). A549 (non-small cell lung cancer), SW480, and HCT116 (both colon cancer) cells were kindly provided by the Institute of Cancer Research, Department of Medicine I, Medical University of Vienna, Austria. All cell lines were grown as monolayer cultures in Eagle’s MEM supplemented with L-glutamine (4 mM), sodium pyruvate (1 mM) and 1% (v/v) non-essential amino acid solution (all from Sigma-Aldrich) and 10% (v/v) heat-inactivated fetal calf serum (FCS, BioWest) in 75-cm^2 flasks (Starlab) at 37 °C under a humidified atmosphere containing 5% CO2 in air. […] After 24 h, test compounds were dissolved in DMSO (Fisher Scientific), serially diluted in complete MEM not to exceed a final DMSO content of 0.5% (v/v) and added in 100 μL per well. After 96 h, the drug-containing medium was replaced with 100 µL of RPMI 1640/MTT mixture, i. e., 6 parts of RPMI 1640 medium (Sigma-Aldrich; supplemented with 10% heat-inactivated fetal bovine serum and 4 mM L-glutamine), 1 part of MTT solution in phosphate-buffered saline (5 mg/mL; both from Sigma-Aldrich). After incubation for 4 h, the MTT-containing medium was replaced with 150 μL DMSO per well to dissolve the formazan product formed by viable cells. Optical densities at 550 nm (and at the reference wavelength of 690 nm) were measured with a microplate reader (ELx808, Bio-Tek). The IC50 values relative to untreated controls were interpolated from concentration–effect curves. At least three independent experiments were performed, each with triplicates per concentration level.
(Tetrazolium dyes change colour on reduction, which living cells bring about.)

Series [2] in a line: Solubility in minimal essential medium (MEM, 1% DMSO). As to the method:
Melting points were determined with a Büchi Melting Point M-560. The solubility was determined by dissolving the compound in DMSO and subsequent dilution to a final concentration of 1% DMSO/MEM solution (minimal essential medium) and 1% DMSO/MSP solution (medium with serum proteins). The highest concentrated dilution, where no precipitation of the compound occurred, was the determined solubility. The NMR spectra were recorded at 25 °C using a Bruker FT-NMR spectrometer Avance III^TM 500 MHz. ^1H-NMR spectra were measured at 500.10 MHz and ^13C-NMR spectra were recorded at 125.75 MHz in deuterated methanol (CD3OD). 2D-NMR spectra were measured using a gradient-enhanced mode. CHN elemental analyses were performed with a Eurovector EA3000 Elemental Analyzer in the microanalytical laboratory of the University of Vienna. Single crystals of complexes 1b–1f suitable for X-ray diffraction analysis were grown by precipitation from DCM/Et2O at 4 °C. The X-ray intensity data were measured on Bruker D8 Venture or X8 APEX II diffractometer equipped with multilayer monochromators, Mo K/α INCOATEC microfocus sealed tubes and Kryoflex cooling devices (Bruker, Karlsruhe, Germany). The structures were solved by direct methods and refined by full-matrix least-squares techniques. Non-hydrogen atoms were refined with anisotropic displacement parameters. Hydrogen atoms were inserted at calculated positions and refined with a riding model separately as rotating groups. The following software was used: Bruker SAINT software package using a narrow-frame algorithm for frame integration, SADABS [33] for absorption correction, OLEX2 [34] for structure solution, refinement, molecular diagrams and graphical user-interface, Shelxle for refinement and graphical user-interface, SHELXS-2013 [36] for structure solution, SHELXL-2013 [37] for refinement, and Platon for symmetry check. Electronspray ionization mass spectra were recorded on a Bruker AmaZon SL ion trap mass spectrometer (Bruker Daltonics GmbH, Hamburg, Germany).

A further series deals with SW480 cells. As to the kind of experiment: Cellular accumulation by ICP-MS quantification of ruthenium (or platinum). The note with it: 50 µM; for cellular accumulation, fg Ru or Pt/Cell: exposure time 2 h, ICP-MS of ruthenium; for cellular ruthenium values: ICP-MS. It is filed as cell-based, human. As to the method:
Ruthenium accumulation was measured by means of inductively coupled plasma mass spectrometry (ICP-MS) upon 2 h exposure of SW480 cells to 50 µM of each compound.
Cellular accumulation of the compounds was studied based on a previously described method with modifications as follows: SW480 cells with a number of 1.8 × 10^5 per well were seeded into 12-well plates in aliquots of 1 mL complete MEM and incubated at 37 °C for 24 h. Then, cells were exposed for 2 h at 37 °C to 50 μM solutions of the test compounds (containing 0.5% DMSO) in 500 µL of fresh complete MEM upon exchange of the medium. Afterwards, cells were washed three times with PBS, and lyzed with 0.4 mL sub-boiled HNO3 per well for 1 h at room temperature. Ruthenium content was quantified by ICP-MS using an Agilent 7500ce quadrupole ICP-MS instrument (Agilent Technologies, Waldbronn, Germany) equipped with a CETAC ASX-520 autosampler (Nebraska, USA) and a MicroMist nebulizer. Ruthenium and indium standards were obtained from CPI International (Amsterdam, The Netherlands). The instrument was equipped with nickel cones and operated at an RF power of 1560 W, with argon as the plasma gas (15 L/min), carrier gas (1.0–1.1 L/min) and make-up gas (0.1–0.2 L/min). The Agilent MassHunter software package (Workstation Software, Version B.01.01, Build 123.11, Patch 4, 2012) was used for data processing. Results are based on at least three independent experiments, each comprising triplicate samples. The instrument was tuned on a daily basis for maximum sensitivity and doubly charged species as well as oxide rates were <5%.

Series [3] concerns A549 (non-small cell lung cancer) cells. In words: MTT antiproliferative assay, A549. It is filed as cell-based, human. The note with it: exposure time 96 h, means ± standard deviations. As to the method: as §1
The nature of series [4]: pH-dependent stability by UV-VIS spectroscopy. It is filed as physicochemical. The note with it: for precipitation at pH 7.4: 40 µM, PBS, 1% DMSO, loss of absorbance without change in spectrum. From the text: The stability under physiological conditions is a vital part of the process of developing a new drug. Additionally, N-donor leaving groups equip piano-stool complexes with an elegant pH-switch. Theoretically, they can be protonated at lower pH values, as found in the extracellular matrix of the tumor tissue, and are therefore cleaved off. The resulting aqua complex is highly reactive and able to interact with biological targets. To put this theory to the test, the stability of complexes 1a–g was investigated at different pH values, i.e., 5.5, 6.5, 7.4, and 8.5. Spectra were recorded over a period of 24 h, with 40 µM solutions (1% DMSO in water) in the range of 250–700 nm. The chosen pH values represented the physiologically relevant conditions; a pH value of 8.5 is the highest pH found in the human body (in the duodenum), a pH value of 7.4 is the average pH of human blood, and a pH value of 6.5 is the pH found in the extracellular matrix of solid tumors.
Stability measurements were performed on a Lambda 35 UV/VIS spectrometer (Perkin Elmer, Boston, MA, USA). Samples of complexes 1a–g: 40 µM in PBS (pH 7.4) and isotonic saline phosphate buffer with 0.9% sodium chloride (pH 8.5), diluted isotonic acetic acid (pH 5.5), and acetate buffer (pH 6.5) with 1% DMSO. UV-VIS spectra were recorded hourly for 24 h at 37 °C. Temperature control was maintained by a PTP-6 Peltier System (Perkin Elmer, Boston, MA, USA).

Values joined by “and” are separate entries in the source; they are usually repeats but may differ in a detail not shown here. Equal entries are not always repeated. Bounds are passed on as bounds.

In general, IC50 refers to the concentration that gives 50% inhibition. A low value points to inhibition by little substance. The term solubility denotes the concentration that dissolves in the medium under given conditions. High values mean much dissolved substance, low ones little dissolved substance. In the case of `Cc1ccc(C(C)C)cc1.F[P-](F)(F)(F)(F)F.O=C1C2=C(NCc3ccccc3)[O][Ru-]([n+]3ccc[nH]3)[O+]=C2c2ccccc21` [1c], the half-inhibitory concentration (IC50) was determined as 15.2 ± 0.6 µM in series [1] and 22.9 ± 3.5 µM in series [3]. Further, in series [2], the solubility was 0.28 mg/mL and 0.39 mM. The “cellular accumulation, fg Ru or Pt/Cell” value with SW480 cells was 67 ± 27 fg Ru or Pt/Cell.

As to `Cc1ccc(C(C)C)cc1.F[P-](F)(F)(F)(F)F.O=C1C2=C(NCc3ccccc3)[O][Ru-]([n+]3c[nH]c4ccccc43)[O+]=C2c2ccccc21` [1d], the “precipitation at pH 7.4” value in series [4] is listed as “precipitated to some extent”. Besides, the results for the IC50 in series [1] and in series [3] were 8.8 ± 1.3 µM and 19 ± 0.8 µM, respectively. Moreover, the solubility in series [2] is 0.29 mg/mL and 0.37 mM. Moreover, the cellular ruthenium values in the series on SW480 cells (2 h) is above 400 fg/cell. Further, the “cellular accumulation, fg Ru or Pt/Cell” value in the series with SW480 cells is recorded as 405 ± 128 fg Ru or Pt/Cell.

As to `Cc1ccc(C(C)C)cc1.Cn1ccnc1.F[P-](F)(F)(F)(F)F.O=C1C(=C(NCc2ccccc2)[O][Ru+])C(=O)c2ccccc21` [1b], the IC50 in series [1] is 10.9 ± 1 µM; in series [3], 21.4 ± 1.7 µM. In series [2], the solubility was 0.30 mg/mL and 0.40 mM. The “cellular accumulation, fg Ru or Pt/Cell” value with SW480 cells was 97 ± 28 fg Ru or Pt/Cell.

On to `Cc1ccc(C(C)C)cc1.O=C1C2=C(NCc3ccccc3)[O][Ru-]([Cl])[O+]=C2c2ccccc21` [1a], for which the “hydrolysis in aqueous systems” value in series [4] (aquation to the aqua complex) was “hydrolyzed quickly to the more reactive aqua complex”. Besides, the IC50 in series [1] stood at 12.4 ± 0.4 µM; in series [3] it was 23.4 ± 2.5 µM. Besides, the “cellular ruthenium accumulation relative to complex 1d” value in the series on SW480 cells (2 h) was “almost fiftyfold lower”. The compound further came in with a cellular ruthenium values with SW480 cells (2 h) below 10 fg/cell. Also, in the series on SW480 cells, the “cellular accumulation, fg Ru or Pt/Cell” value is on record as 8.4 ± 2.8 fg Ru or Pt/Cell.

Take `Cc1ccc(C(C)C)cc1.F[P-](F)(F)(F)(F)F.O=C1C2=C(NCc3ccccc3)[O][Ru-]([n+]3cc4ccccc4[nH]3)[O+]=C2c2ccccc21` [1e]: the “precipitation at pH 7.4” value in series [4] is recorded as “precipitated to some extent”. Further, the values for the 50% inhibitory concentration (IC50) in series [1] and in series [3] were 16.8 ± 3.1 µM and 23.7 ± 6.4 µM, respectively. Further, the solubility in series [2] was 0.06 mg/mL and 0.08 mM. Further, the “cellular accumulation, fg Ru or Pt/Cell” value in the series with SW480 cells was 114 ± 35 fg Ru or Pt/Cell.

As to `Cc1ccc(C(C)C)cc1.F[P-](F)(F)(F)(F)F.O=C1C2=C(NCc3ccccc3)[O][Ru-]([NH+]3CCOCC3)[O+]=C2c2ccccc21` [1g], the IC50 in series [1] turned out to be 9.2 ± 1.8 µM; in series [3], 18.9 ± 1.4 µM. In series [2], the solubility is 0.22 mg/mL and 0.29 mM. In the series with SW480 cells, the “cellular accumulation, fg Ru or Pt/Cell” value is recorded as 123 ± 32 fg Ru or Pt/Cell.
